Patent US7342137B1, “Cyclohexenone compounds from Antrodia camphorata and application thereof” (Golden Biotechnology Corporation, priority 2007, dated 2008)

What was measured:
Type in all cases: cell-based
[1] = tested on: human hepatic-cancer cells, Hep 3B; assay: In vitro survival assay (MTT), hepatic cancer cells Hep 3B; details: Hep3B, 48 hours incubation
Experimental: The NCI anti-cancer drug screen model was also adopted to test the anti-cancer effect of the compound isolated from example 1 in the present invention. The isolated compound of 4-hydroxy-2,3-dimethoxy-6-methyl-5(3,7,11-trimethyl-dodeca-2,6,10-trienyl)-cyclohex-2-enone from example 1 was added into the culture media of human hepatic-cancer cells, Hep 3B or Hep G2, for tumor cell survival assay.
The human hepatic-cancer cells, Hep 3B and Hep G2, were separately cultivated in media containing fetal calf serum for 24 hours. The proliferated cells were washed once with PBS, then treated with 1× trypsin-EDTA and centrifuged at 1200 rpm for 5 minutes. The supernatant was discarded and the cell pellet was resuspended in 10 ml of fresh culture medium by gently shaking. The cells were placed in a 96-well plate. Ethanol extracts of Antrodia camphorata (the control group, total extracts of Antrodia camphorata without purification) were added into each of the 96 wells at the following concentrations: 30, 10, 3, 1, 0.3, 0.1 and 0.03 μg/ml, respectively, while 4-hydroxy-2,3-dimethoxy-6-methyl-5(3,7,11-trimethyl-dodeca-2,6,10-trienyl)-cyclohex-2-enone (the experiment group) were added into each of the 96 wells at the following concentrations: 30, 10, 3, 1, 0.3, 0.1 and 0.03 μg/ml, respectively. […] The plates were read on an ELISA reader at wavelength of 570 nm to determine the survival rates.

[2] = tested on: human breast-cancer cells, MCF-7; assay: In vitro survival assay (MTT), breast cancer cells MCF-7; details: MCF7, 48 hours incubation
Experimental: The NCI anti-cancer drug screen model was adopted to test the anti-cancer effect of the compound from example 1 in the invention. The isolated compound of 4-hydroxy-2,3-dimethoxy-6-methyl-5(3,7,11-trimethyl-dodeca-2,6,10-trienyl)-cyclohex-2-enone from example 1 was added into the culture media of human breast-cancer cells, MCF-7 or MDA-MB-231, for tumor cell survival assay. This assay can be tested with 3-[4,5-dimethylthiazol-2-yl]2,5-diphenyltetrazolium bromide (MTT) assay, which is commonly used to determine cell proliferation, percent of viable cells, and cytotoxicity. MTT is a yellow dye, which can be absorbed by the living cells and be reduced to purplish blue formazan crystals by succinate tetrazolium reductase in mitochondria. Formazan formation can therefore be used to assess and determine the survival rate of cells.
The human breast-cancer cells, MCF-7 and MDA-MB-231 were separately cultivated in media containing fetal calf serum for 24 hours. The proliferated cells were washed once with PBS, then treated with 1× trypsin-EDTA and centrifuged at 1200 rpm for 5 minutes. The supernatant was discarded and the cell pellet was resuspended in 10 ml of fresh culture medium by gently shaking. The cells were placed in a 96-well plate. […] The plates were read on an ELISA reader at wavelength of 570 nm to determine the survival rates.

[3] = tested on: human hepatic cancer cells, Hep G2; assay: In vitro Taxol add-on study (MTT), Hep G2; details: Homo sapiens, HepG2, 0.0017 μg/ml Taxol + formula 2
Experimental: (§1) The experiment was also carried out according to NCI anti-cancer drug screen in vitro model. The human hepatic cancer cells, Hep 3B and Hep G2 and MDA-MB-231 were separately cultivated in media containing fetal calf serum for 24 hours. The proliferated cells were washed once with PBS, then treated with 1× trypsin-EDTA and centrifuged at 1200 rpm for 5 minutes. The supernatant was discarded and the cell pellet was resuspended in 10 ml of fresh culture medium by gently shaking. The Hep 3B cells were treated with 0.0043 μg/ml of Lovastatin for 72 hours and Hep G2 cells were treated with 0.0017 μg/ml of Taxol for 72 hours before placing in a 96-well plate. 4-hydroxy-2,3-dimethoxy-6-methyl-5(3,7,11-trimethyl-dodeca-2,6,10-trienyl)-cyclohex-2-enone obtained from example 1 were added respectively into each of the 96 wells at the following concentrations: 0 μg/ml (the control group); 30, 10, 3, 1, 0.3, 0.1 and 0.03 μg/ml (the experiment group). The cells were incubated at 37° C. in a 5% CO2 incubator for 48 hours. MTT was added in a concentration of 2.5 mg/ml into each well in dark and reacted for 4 hours, followed by the addition of 100 μl of lysis buffer to stop the reaction. The plates were read on an ELISA reader at wavelength of 570 nm to determine the survival rates.

[4] = tested on: human prostate cancer cells, LNCaP; assay: In vitro Taxol add-on study (MTT), prostate cancer cells LNCaP; details: Homo sapiens; LNCaP (0.0017 μg/ml Taxol + formula 2) as printed in Table 6
Experimental: as §1, with “human prostate” for “human hepatic”, “cells, LNCaP” for “cells, Hep 3B”, “and DU-145” for “and Hep G2 and MDA-MB-231”, “The LNCaP cells were treated with 0.0017 μg/ml of Taxol for 72 hours and DU-145” for “The Hep 3B”, “0.0043” for “0.0043 μg/ml of Lovastatin for 72 hours and Hep G2 cells were treated with 0.0017”

IC50 [3]: 0.008 µg/mL | IC50 [4]: 0.961 µg/mL
SMILES: COC1=C(OC)C(O)C(C/C=C(\C)CC/C=C(\C)CCC=C(C)C)C(C)C1=O (stereo not shown) [formula 2, 4-hydroxy-2,3-dimethoxy-6-methyl-5(3,7,11-trimethyl-dodeca-2,6,10-trienyl)-cyclohex-2-enone]
IC50 [1]: 0.005 µg/mL | IC50 [2]: 0.852 µg/mL
